{"source": "patent US20240058464A1", "about": "(Fortis Therapeutics, Inc., priority 2021, published 2024)", "key": {"CD46 expression [1]": {"system": "CD46 expression", "assay": "CD46 expression by RNA-sequencing in unpaired pre-treatment and post-treatment tumor biopsies", "format": "in vivo, human", "settings": "for CD46 expression diff: Post minus Pre, unpaired biopsies, log2-transformed counts; for CD46 expression Percentage change: post- vs pre-treatment unpaired biopsies; for CD46 expression Post: post-treatment biopsies, unpaired, RNA-seq log2-transformed normalized counts"}, "CD46 expression [2]": {"system": "CD46 expression", "assay": "CD46 expression by RNA-sequencing in paired tumor biopsies before and after therapy;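 for all read-outs here: FFPE human tumor biopsies, exome-capture RNA-seq, reads aligned to GRCh37, counts normalized for GC content, length and depth, summed per gene, log2-transformed, samples paired before versus after therapy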", "settings": "paired biopsies; for CD46 expression, Post-Treatment Biopsy / CD46 expression, Pre-Treatment Biopsy: RNA-seq log2-transformed counts", "procedure": "Gene expression was determined by RNA-sequencing from formalin-fixed, paraffin-embedded (FFPE) tumor samples using an exome capture-based protocol. Briefly, total nucleic acid was extracted from FFPE solid tumor samples. The RNA sample was treated with DNAse and reverse transcribed. cDNA was captured with a custom probe set targeting the human exome. A library was prepared from the captured cDNA and sequenced on the Illumina platform. Sequence read were aligned to GRCh37 using Kallisto and normalized to quantify gene expression. Specifically, transcript counts were corrected for GC content and length using quantile normalization and adjusted for sequencing depth via a size factor method. Normalized counts in protein coding transcripts covered by the exome panel were then summed to obtain gene-level counts. Subsequent expression analyses were performed on log2-transformed counts."}, "[3]": {"settings": "Head and Neck Squamous Cell Carcinoma"}}, "data": [{"compound": "N.N.O=C([O-])C1(C(=O)[O-])CCC1.[Pt+2]", "note": "[carboplatin]", "values": [{"measurement": "CD46 expression diff", "setting": "CD46 expression [1]; Bladder Cancer", "value": 0.14}, {"measurement": "CD46 expression Percentage change", "setting": "CD46 expression [1]; Bladder Cancer", "value": 2.3, "unit": "%"}, {"measurement": "CD46 expression Post", "setting": "CD46 expression [1]; Bladder Cancer", "value": 6.12}, {"measurement": "CD46 expression diff", "setting": "CD46 expression [1]; Breast Cancer", "value": "−0.07"}, {"measurement": "CD46 expression Percentage change", "setting": "CD46 expression [1]; Breast Cancer", "value": "−1.1", "unit": "%"}, {"measurement": "CD46 expression Post", "setting": "CD46 expression [1]; Breast Cancer", "value": 6.00}, {"measurement": "CD46 expression diff", "setting": "CD46 expression [1]; Colorectal Cancer", "value": 0.59}, {"measurement": "CD46 expression Percentage change", "setting": "CD46 expression [1]; Colorectal Cancer", "value": 10.3, "unit": "%"}, {"measurement": "CD46 expression Post", "setting": "CD46 expression [1]; Colorectal Cancer", "value": 6.35}, {"measurement": "CD46 expression diff", "setting": "CD46 expression [1]; Endocrine Tumor", "value": 0.22}, {"measurement": "CD46 expression Percentage change", "setting": "CD46 expression [1]; Endocrine Tumor", "value": 3.9, "unit": "%"}, {"measurement": "CD46 expression Post", "setting": "CD46 expression [1]; Endocrine Tumor", "value": 5.90}, {"measurement": "CD46 expression diff", "setting": "CD46 expression [1]; Endometrial Cancer", "value": 0.01}, {"measurement": "CD46 expression Percentage change", "setting": "CD46 expression [1]; Endometrial Cancer", "value": 0.2, "unit": "%"}, {"measurement": "CD46 expression Post", "setting": "CD46 expression [1]; Endometrial Cancer", "value": 5.83}, {"measurement": "CD46 expression diff", "setting": "CD46 expression [1]; Esophageal Cancer", "value": "−0.11"}, {"measurement": "CD46 expression Percentage change", "setting": "CD46 expression [1]; Esophageal Cancer", "value": "−1.8", "unit": "%"}, {"measurement": "CD46 expression Post", "setting": "CD46 expression [1]; Esophageal Cancer", "value": 5.79}, {"measurement": "CD46 expression diff", "setting": "CD46 expression [1]; [3]", "value": 0.11}, {"measurement": "CD46 expression Percentage change", "setting": "CD46 expression [1]; [3]", "value": 2.0, "unit": "%"}, {"measurement": "CD46 expression Post", "setting": "CD46 expression [1]; [3]", "value": 5.69}, {"measurement": "CD46 expression diff", "setting": "CD46 expression [1]; Non-Small Cell Lung Cancer", "value": "−0.08"}, {"measurement": "CD46 expression Percentage change", "setting": "CD46 expression [1]; Non-Small Cell Lung Cancer", "value": "−1.2", "unit": "%"}, {"measurement": "CD46 expression Post", "setting": "CD46 expression [1]; Non-Small Cell Lung Cancer", "value": 6.10}, {"measurement": "CD46 expression diff", "setting": "CD46 expression [1]; Ovarian Cancer", "value": "−0.01"}, {"measurement": "CD46 expression Percentage change", "setting": "CD46 expression [1]; Ovarian Cancer", "value": "−0.2", "unit": "%"}, {"measurement": "CD46 expression Post", "setting": "CD46 expression [1]; Ovarian Cancer", "value": 5.73}, {"measurement": "CD46 expression diff", "setting": "CD46 expression [1]; Prostate Cancer", "value": "−0.03"}, {"measurement": "CD46 expression Percentage change", "setting": "CD46 expression [1]; Prostate Cancer", "value": "−0.5", "unit": "%"}, {"measurement": "CD46 expression Post", "setting": "CD46 expression [1]; Prostate Cancer", "value": 5.92}, {"measurement": "CD46 expression diff (post minus pre)", "setting": "CD46 expression [2]; Breast Cancer", "value": "−0.08"}, {"measurement": "Percent Change in CD46 expression", "setting": "CD46 expression [2]; Breast Cancer", "value": "−1.2", "unit": "%"}, {"measurement": "CD46 expression, Post-Treatment Biopsy", "setting": "CD46 expression [2]; Breast Cancer", "value": 6.06}, {"measurement": "CD46 expression, Pre-Treatment Biopsy", "setting": "CD46 expression [2]; Breast Cancer", "value": 6.14}, {"measurement": "CD46 expression diff (post minus pre)", "setting": "CD46 expression [2]; Endometrial Cancer", "value": 0.30}, {"measurement": "Percent Change in CD46 expression", "setting": "CD46 expression [2]; Endometrial Cancer", "value": 5.1, "unit": "%"}, {"measurement": "CD46 expression, Pre-Treatment Biopsy", "setting": "CD46 expression [2]; Endometrial Cancer", "value": 5.95}, {"measurement": "CD46 expression diff (post minus pre)", "setting": "CD46 expression [2]; Non-Small Cell Lung Cancer", "value": "−0.06"}, {"measurement": "Percent Change in CD46 expression", "setting": "CD46 expression [2]; Non-Small Cell Lung Cancer", "value": "−1.0", "unit": "%"}, {"measurement": "CD46 expression, Post-Treatment Biopsy", "setting": "CD46 expression [2]; Non-Small Cell Lung Cancer", "value": 6.07}, {"measurement": "CD46 expression diff (post minus pre)", "setting": "CD46 expression [2]; Ovarian Cancer", "value": 0.01}, {"measurement": "Percent Change in CD46 expression", "setting": "CD46 expression [2]; Ovarian Cancer", "value": 0.2, "unit": "%"}, {"measurement": "CD46 expression, Post-Treatment Biopsy", "setting": "CD46 expression [2]; Ovarian Cancer", "value": 5.67}, {"measurement": "CD46 expression, Pre-Treatment Biopsy", "setting": "CD46 expression [2]; Ovarian Cancer", "value": 5.66}]}]}
